Values of other authors as cited in patent publication US20160089381A1, “STABILITY OF PROGESTOGEN FORMULATIONS” (Novo Nordisk HealthCare AG, priority 2003, published 2016).

Tested on: endometrium
Conditions: dose equivalent to 1 mg NETA

| Compound | Endometrium transformation dosage [mg] |
| --- | --- |
| CC(=O)O[C@]1(C(C)=O)CC[C@H]2[C@@H]3C=C(Cl)C4=CC(=O)[C@@H]5C[C@@H]5[C@]4(C)[C@H]3CC[C@@]21C [cyproterone acetate] | 1 |
| CC(=O)O[C@]1(C(C)=O)CC[C@H]2[C@@H]3C[C@H](C)C4=CC(=O)CC[C@]4(C)[C@H]3CC[C@@]21C [medroxyprogestogen acetate] | 5 |
